Experimental data taken from BindingDB's records for doi:10.1111/cbdd.12265 (Birla Institute of Technology, 2014).

Biological target: T1, Secreted chorismate mutase (Mycobacterium tuberculosis (strain ATCC 25618 / H37Rv), UniProt P9WIB9)
T1 sequence (P9WIB9 whole entry): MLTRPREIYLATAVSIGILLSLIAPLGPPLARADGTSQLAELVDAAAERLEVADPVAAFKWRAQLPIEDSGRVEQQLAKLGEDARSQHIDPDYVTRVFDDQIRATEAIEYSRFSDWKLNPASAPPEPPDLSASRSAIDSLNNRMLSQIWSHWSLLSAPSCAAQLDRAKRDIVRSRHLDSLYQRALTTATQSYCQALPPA
Test: CM Assay
Details: 37 °C
Method: The reaction was initiated by the addition of 150pmoles of enzyme to a mixture of inhibitor (40µM, 20 µM, 10 µM, 5 µM, 1 µM and 0.5 µM ), 20µM chorismic acid in 50mM Tris-HCl, 0.5mM EDTA, 0.1mg/ml BSA, 10mM β-mercaptoethanol (pH-7.5). The assay mixture was incubated at 37°C for 5 min and the reaction was terminated by the addition of 40µL of 1N HCl and further incubation at 37°C for 1 to 5 min. Phenyl pyruvate formed at the end of reaction is converted to chromophoric base with the addition of 80µL 2.5N NaOH. The absorbance of each sample was read at 320nm. Positive control contained the assay mixture with carvacrol(40µM, 20 µM, 10 µM, 5 µM, 1 µM and 0.5 µM ).

Row | Structure (SMILES) | IC50 [µM]
1 | O=C1Nc2ccc(-c3ccccc3)cc2C1=O | 37.1
2 | CN1C(=O)C(=O)c2ccccc21 [1-methyl-2,3-dihydro-1H-indole-2,3-dione] | 1.96
3 | O=C1C(=O)N(c2ccccc2)c2ccccc21 [1-phenyl-2,3-dihydro-1H-indole-2,3-dione] | 23.3
4 | CC(C)(C)C(=O)N1C(=O)C(=O)c2ccccc21 [1‐(2,2‐dimethylpropanoyl)indole‐2,3‐dione (Compound 8)] | 41
5 | C=CCN1C(=O)C(=O)c2ccccc21 [1‐(prop‐2‐en‐1‐yl)indole‐2,3‐dione (Compound 5)] | 96.6
6 | CC(=O)n1c(O)c(NC(=S)N=N)c2ccccc21 [1‐[(3Z)‐1‐acetyl‐2‐oxoindol‐3‐ylidene]‐3‐ aminothiourea (Compound 11)] | 30.5
7 | CC(=O)N1C(=O)C(=NC(=O)NN)c2ccccc21 [1‐[(3Z)‐1‐acetyl‐2‐oxoindol‐3‐ylidene]‐3‐aminourea (Compound 12)] | 25
8 | CCN1C(=O)C(=O)c2ccccc21 [1‐ethylindole‐2,3‐dione (Compound 3)] | 22.7
9 | CC(C)N1C(=O)C(=O)c2ccccc21 [1‐isopropylindole‐2,3‐dione (Compound 4)] | 75.1
10 | O=C1Nc2ccccc2C1=O [2,3-dihydro-1H-indole-2,3-dione] | 1.08
11 | O=C1Nc2ccccc2/C1=C/c1ccc([N+](=O)[O-])cc1 [3-(4-nitrobenzylidene)indolin-2-one (Compound 24)] | 1.01
12 | O=C1Nc2ccccc2/C1=C/c1ccc([N+](=O)[O-])s1 [3-((5-nitrothiophen-2-yl)methylene)indolin-2-one (Compound 25)] | 0.93
13 | NNC(=S)N=C1C(=O)Nc2ccccc21 [3‐amino‐1‐[(3Z)‐2‐oxo‐1H‐indol‐3‐ylidene]thiourea (Compound 9)] | 66.9
14 | NNC(=O)/N=C1\C(=O)Nc2ccccc21 [3‐amino‐1‐[(3Z)‐2‐oxo‐1H‐indol‐3‐ylidene]urea (Compound 10)] | 54.1
15 | O=C1Nc2ccc(-c3cccc(Cl)c3Cl)cc2C1=O [5‐(2,3‐dichlorophenyl)‐1H‐indole‐2,3‐dione (Compound 17)] | 95.7
16 | Cc1ccc(C)c(-c2ccc3c(c2)C(=O)C(=O)N3)c1 [5‐(2,5‐dimethylphenyl)‐1H‐indole‐2,3‐dione (Compound 18)] | 36.5
17 | CN1CCN(c2ccc3c(c2)C(=O)C(=O)N3)CC1 [5‐(4‐methylpiperazin‐1‐yl)‐1H‐indole‐2,3‐dione (Compound 20)] | 31.9
18 | O=C1Nc2ccc(N3CCNCC3)cc2C1=O [5‐(piperazin‐1‐yl)‐1H‐indole‐2,3‐dione (Compound 19)] | 39.9
19 | O=C1Nc2ccc(N3CCCCC3)cc2C1=O [5‐(piperidin‐1‐yl)‐1H‐indole‐2,3‐dione (Compound 22)] | 25.6
20 | O=C1Nc2ccc(N3CCN(C(=O)c4ccco4)CC3)cc2C1=O [5‐[4‐(furan‐2‐carbonyl)piperazin‐1‐yl]‐1H‐indole‐ 2,3‐dione (Compound 23)] | 28.8
21 | O=C1Nc2ccc(N3CCN(c4cccc(C(F)(F)F)c4)CC3)cc2C1=O [5‐{4‐[3‐(trifluoromethyl)phenyl]piperazin‐1‐yl}‐1H‐ indole‐2,3‐dione (Compound 21)] | 55.7
22 | O=NC1C(=O)Nc2ccccc21 (stereo not given) [(3Z)‐3‐(hydroxyimino)‐1H‐indol‐2‐one (Compound 15)] | 98.1
23 | O=C1Nc2ccccc2/C1=N/c1ncc([N+](=O)[O-])s1 [(3Z)‐3‐[(5‐nitro‐1,3‐thiazol‐2‐yl)imino]‐1H‐indol‐2‐ one (Compound 13)] | > 100
24 | O=C1Nc2ccccc2/C1=N/c1nc2ccc([N+](=O)[O-])cc2s1 [(3Z)‐3‐[(6‐nitro‐1,3‐benzothiazol‐2‐yl)imino]‐1H‐ indol‐2‐one (Compound 14)] | > 100
25 | CC(=O)N1C(=O)C(=O)c2ccccc21 [Acetylisatin (Compound 7)] | 0.99
